Experiments:
NE = target: T1, NE (Homo sapiens, UniProt P08246); test: Activity-based profiling of NE (SDS-PAGE, streptavidin-HRP western blot); assay type: binding; settings: 50 μM ABP, 30 min, 37°C; labelling extinguished by heat inactivation of NE
T1 construct: purchased Calbiochem
T1 sequence (P08246 30-267): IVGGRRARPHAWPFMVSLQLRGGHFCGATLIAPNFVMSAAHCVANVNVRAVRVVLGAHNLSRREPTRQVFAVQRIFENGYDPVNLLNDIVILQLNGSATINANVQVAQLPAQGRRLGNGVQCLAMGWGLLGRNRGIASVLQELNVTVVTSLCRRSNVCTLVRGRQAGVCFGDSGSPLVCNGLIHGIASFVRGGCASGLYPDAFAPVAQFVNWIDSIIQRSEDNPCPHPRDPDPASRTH
Procedure: Samples of recombinant protease (trypsin, plasmin, thrombin, chymotrypsin, or HNE, as indicated in the relevant figure legends) were treated with each of the newly synthesized compounds at a concentration of 50 μM, for 30 min, at 37°C. A control sample (no ABP) was prepared by treating the recombinant protease with solvent vehicle (DMF) only, used to prepare the stock solution of each ABP. Samples were also pre-treated (±90°C for 30 min) before being incubated with each putative ABP. With trypsin and thrombin, further samples were prepared where Z-Arg^P-(OPh)2 or NAP559, respectively, was added 30 min prior to the addition of the ABP under examination. […]
(§1) FIGURE 7 Activity Based Profiling of serine proteases by peptide N-Alkyl glycine carbamates. […] CF Sol (sample 26w) was used at a final concentration of 2.5% (v/v), and the level of NE contained therein was measured using Succinyl-Ala-Ala-Pro-Val-NHMec (50 μM), in the absence (-- o --) and presence (-- o --) of NAP800 (50 μM). […]
Following transfer, the extra protein binding sites on the membrane were blocked by addition of 3% (w/v) BSA in TBST (20 mM Tris, 137 mM NaCl, 1% (v/v) Tween 20, pH 7.6) and agitated gently at room temperature for 30 minutes. The biotin-labelled proteases were then detected by addition of Streptavidin-HRP (Vector Laboratories) in 3% (w/v) BSA in TBST at a concentration of 1:20000, for 1 hour at room temperature. […]

[1] = target: T2, elastase-like proteases (NE) in CF Sol samples (Homo sapiens, UniProt P08246); test: Activity-based profiling of CF Sol samples (SDS-PAGE, streptavidin-HRP western blot); assay type: binding; settings: 50 μM, 30 min, 37°C; band ∼29 kDa
T2 construct: from tissue; host or cells: Cystic Fibrosis (CF) Sol samples 26w and 41w from patients
T2 sequence (P08246 30-247 limits assumed): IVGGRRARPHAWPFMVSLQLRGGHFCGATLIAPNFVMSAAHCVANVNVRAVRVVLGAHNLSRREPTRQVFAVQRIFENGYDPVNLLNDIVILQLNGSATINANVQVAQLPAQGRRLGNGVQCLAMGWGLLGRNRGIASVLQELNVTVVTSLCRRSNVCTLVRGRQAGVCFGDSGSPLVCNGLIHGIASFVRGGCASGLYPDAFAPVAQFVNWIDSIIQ
Procedure: Samples of recombinant protease (trypsin, plasmin, thrombin, chymotrypsin, or HNE, as indicated in the relevant figure legends) were treated with each of the newly synthesized compounds at a concentration of 50 μM, for 30 min, at 37°C. A control sample (no ABP) was prepared by treating the recombinant protease with solvent vehicle (DMF) only, used to prepare the stock solution of each ABP. Samples were also pre-treated (±90°C for 30 min) before being incubated with each putative ABP. With trypsin and thrombin, further samples were prepared where Z-Arg^P-(OPh)2 or NAP559, respectively, was added 30 min prior to the addition of the ABP under examination. All treated samples were then denatured with SDS containing reducing treatment buffer (10 min at 95°C), followed by resolution by SDS-PAGE and subjected to Western blotting. Resolved proteins were then transferred onto the nitrocellulose membrane and labeled with streptavidin-HRP. The ABP–protease complex was then visualized following treatment with Luminata Forte HRP substrate.
as §1

In the case of `CC(C)N(CC(=O)NCC(=O)NCC(=O)NCCCOCCOCCOCCCNC(=O)CCCCC1SCC2NC(=O)NC21)C(=O)ON1C(=O)CCC1=O` (stereo not drawn) [NAP800, Succinimidoyl-CO-NVal-Gly-Gly-PEG-Biotin], the “labelling of NE by ABP (western blot)” value (NE) is reported as “labels a protein band corresponding to the expected molecular size/mass of NE” and the “labelling of elastase-like proteases in CF Sol (western blot)” value [1] is reported as “detection of a diffuse band in two CF Sol samples (26w and 41w)”.
